Data as given in patent publication US20040110821A1, “GAL3 receptor antagonists for the treatment of affective disorders” (priority 2002, published 2004).

Tests used:
[1] = molecular target: T1, human α1B adrenergic receptor (Homo sapiens, UniProt P35368); experiment: Binding at human α1B adrenergic receptor; conditions: read-out: hα1B Ki
T1 construct: expressed in transfected cells
From the text: (§1) Other receptors: Cell membranes expressing human dopamine D1, D2, D4 and rat D3 receptors were purchased through BioSignal, Inc. (Montreal, Canada). Binding assays using the histamine H1 receptor; dopamine receptors; and α1A, α1B, and α2 adrenergic receptors may be carried out according to the procedures described in U.S. Pat. No. 5,780,485, the disclosure of which is hereby incorporated by reference in its entirety into this application. Binding assays using the dopamine D5 receptor may be carried out according to the procedures described in U.S. Pat. No. 5,882,855, the disclosure of which is hereby incorporated by reference in its entirety into this application. Binding assays for the human α1D adrenergic receptor may be carried out according to the procedures described in U.S. Pat. No. 6,156,518, the disclosure of which is hereby incorporated by reference in its entirety into this application.
(§2) Binding data were analyzed using nonlinear regression and statistical techniques available in the GraphPAD Prism package (San Diego, Calif.). Enzymatic assay data were derived from a standard curve of reference compound data.

[2] = molecular target: T2, human H1 histamine receptor (Homo sapiens, UniProt P35367); experiment: Binding at histamine H1 receptor; conditions: read-out: hH1 Ki
T2 construct: expressed in transfected cells
From the text: as §1, §2

[3] = molecular target: T3, human α2A adrenergic receptor (Homo sapiens, UniProt P08913); experiment: Binding at human α2A adrenergic receptor; conditions: read-out: hα2A Ki
T3 construct: expressed in transfected cells
From the text: as §1, §2

[4] = molecular target: T4, human α1D adrenergic receptor (Homo sapiens, UniProt P25100); experiment: Binding at human α1D adrenergic receptor; conditions: read-out: hα1D Ki
T4 construct: expressed in transfected cells
From the text: as §1, §2

[5] = molecular target: T5, human dopamine D2 receptor (Homo sapiens, UniProt P14416); experiment: Binding at human dopamine D2 receptor; conditions: read-out: hD2 Ki
T5 construct: purchased BioSignal, Inc. (Montreal, Canada)
From the text: as §1, §2

human 5HT1D receptor = molecular target: T6, human 5HT1D receptor (Homo sapiens, UniProt P28221); experiment: Radioligand binding at human 5HT1D receptor; conditions: read-out: h5HT1D Ki
T6 construct: expressed in transfected cells
Protocol: Human 5HT1B, 5HT1D, 5HT1E, 5HT1F, and 5HT7 ReceDtors: The cell lysates of LM(tk-) clonal cell line stably transfected with the genes encoding each of these 5HT receptor-subtypes were prepared as described above. Cell membranes were suspended in 50 mM Tris-HCl buffer (pH 7.4 at 37° C.) containing 10 mM MgCl2, 0.2 mM EDTA, 10 µM pargyline, and 0.1% ascorbate. […] Nonspecific binding was determined in the presence of 10 μM serotonin. The bound radioligand was separated by filtration through GF/B filters using a cell harvester.
as §2

human GAL1 receptor = molecular target: T7, human GAL1 receptor (Homo sapiens, UniProt P47211); experiment: Radioligand binding at cloned human GAL1 receptor; conditions: indolones, Table 4, read-out: Ki (nM) GalR 1
T7 construct: expressed in transfected cells
T7 sequence (P47211 1-349): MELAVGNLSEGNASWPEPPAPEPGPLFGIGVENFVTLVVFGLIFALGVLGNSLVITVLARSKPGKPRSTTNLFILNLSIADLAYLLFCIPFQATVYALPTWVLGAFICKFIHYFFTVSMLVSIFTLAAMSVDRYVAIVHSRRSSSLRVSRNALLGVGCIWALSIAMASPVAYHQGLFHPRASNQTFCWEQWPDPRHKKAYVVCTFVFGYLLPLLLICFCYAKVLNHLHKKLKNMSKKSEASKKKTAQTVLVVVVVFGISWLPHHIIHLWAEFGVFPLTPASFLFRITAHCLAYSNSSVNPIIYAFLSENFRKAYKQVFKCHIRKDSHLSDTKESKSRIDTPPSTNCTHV
Protocol: The present invention provides for a method of determining the binding affinity of a GAL3 antagonist, wherein the GAL3 antagonist is dissolved in a “suitable solvent”. A “suitable solvent” means one which permits the measurement of binding affinity of the GAL3 antagonist to the human GAL3 receptor at concentrations less than 1 μM, preferably less than 100 nM. Examples of solvents include, but are not limited to, DMSO, ethanol, N,N-dimethylacetamide, or water. For indolones, the preferred solvent is 3% DMSO (final concentration in the assay). For pyrimidines, the preferred solvent is 1% ethanol/0.09% polypuronic acid F-127 (final concentration in the assay). For any other type of compounds, the preferred solvent is the solvent which permits the measurement of binding affinity of a GAL3 antagonist at the lowest concentration. Once a suitable solvent is ascertained for the binding assay of the human GAL3 receptor, the same solvent is used in assays to determine the binding affinity for instance, at the GAL1 receptor.
The binding properties of the pyrimidines of the present invention were evaluated at the cloned human galanin receptors, GAL1, GAL2, and GAL3, using protocols described herein.
The binding properties of the indolones of the present invention were evaluated at the cloned human galanin receptors, GAL1, GAL2, and GAL3, using protocols described herein.
LM(tk-) cells were stably transfected with the human GAL1 or GAL3 receptor. CHO cells were stably transfected with the human GAL2 receptor.
cDNAs for the human and rat GAL1, and human and rat GAL3 receptors were transfected with a G-418 resistant gene into the mouse fibroblast LM(tk-) cell line by a calcium phosphate transfection method (Cullen, 1967). Stably transfected cells were selected with G-418. Human and rat GAL2 receptors were similarly transfected into CHO cells.
Membranes were harvested from stably transfected LM(tk-) cells. Adherent cells were washed twice in ice-cold phosphate buffered saline (138 mM NaCl, 8.1 mM Na2HPO4, 2.5 mM KCl, 1.2 mM KH2PO4, 0.9 mM CaCl2, 0.5 mM MgCl2, pH 7.4) and lysed by sonication in ice-cold sonication buffer (20 mM Tris-HCl, 5 mM EDTA, pH 7.7). Large particles and debris were cleared by low speed centrifugation (200×g, 5 min, 4° C.). Membranes were collected from the supernatant fraction by centrifugation (32,000×g, 18 min, 4° C.), washed with ice-cold hypotonic buffer, and collected again by centrifugation (32,000×g, 18 min, 4° C.). The final membrane pellet was resuspended by sonication into a small volume of ice-cold binding buffer (−1 ml for every 5 plates: 10 mM NaCl, 20 mM HEPES, 0.22 mM KH2PO4, 1.26 mM CaCl2, 0.81 mM MgSO4, pH 7.4). Protein concentration was measured by the Bradford method (Bradford, 1976) using Bio-Rad Reagent, with bovine serum albumin as a standard. Membranes were held on ice for up to one hour and used fresh, or flash frozen and stored in liquid nitrogen. Membranes were prepared similarly from CHO cells.
Galanin Receptors: Binding assays were performed according to the following published methods: human GAL3 (PCT International Publication No. WO 98/15570), human GAL1 (PCT International Publication No. WO 95/2260) human GAL2 (PCT International Publication No. WO 97/26853).
as §2

[6] = molecular target: T8, human α2B adrenergic receptor (Homo sapiens, UniProt P18089); experiment: Binding at human α2B adrenergic receptor; conditions: read-out: hα2B Ki
T8 construct: expressed in transfected cells
From the text: as §1, §2

T1 sequence (P35368 whole entry): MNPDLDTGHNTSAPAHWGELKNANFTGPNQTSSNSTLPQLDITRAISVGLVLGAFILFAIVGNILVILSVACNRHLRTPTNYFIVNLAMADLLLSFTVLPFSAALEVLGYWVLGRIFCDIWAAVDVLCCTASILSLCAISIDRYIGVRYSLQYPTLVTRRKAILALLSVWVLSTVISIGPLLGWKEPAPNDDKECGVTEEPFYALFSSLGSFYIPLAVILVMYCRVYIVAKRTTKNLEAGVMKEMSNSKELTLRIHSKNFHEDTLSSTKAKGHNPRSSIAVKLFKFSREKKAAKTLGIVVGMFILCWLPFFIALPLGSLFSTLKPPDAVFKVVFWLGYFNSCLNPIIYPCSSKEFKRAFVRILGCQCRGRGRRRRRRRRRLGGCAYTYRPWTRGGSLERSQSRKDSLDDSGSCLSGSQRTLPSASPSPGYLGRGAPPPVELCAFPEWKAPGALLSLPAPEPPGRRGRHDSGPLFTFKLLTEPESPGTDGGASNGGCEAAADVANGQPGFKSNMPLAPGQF
T2 sequence (P35367 whole entry): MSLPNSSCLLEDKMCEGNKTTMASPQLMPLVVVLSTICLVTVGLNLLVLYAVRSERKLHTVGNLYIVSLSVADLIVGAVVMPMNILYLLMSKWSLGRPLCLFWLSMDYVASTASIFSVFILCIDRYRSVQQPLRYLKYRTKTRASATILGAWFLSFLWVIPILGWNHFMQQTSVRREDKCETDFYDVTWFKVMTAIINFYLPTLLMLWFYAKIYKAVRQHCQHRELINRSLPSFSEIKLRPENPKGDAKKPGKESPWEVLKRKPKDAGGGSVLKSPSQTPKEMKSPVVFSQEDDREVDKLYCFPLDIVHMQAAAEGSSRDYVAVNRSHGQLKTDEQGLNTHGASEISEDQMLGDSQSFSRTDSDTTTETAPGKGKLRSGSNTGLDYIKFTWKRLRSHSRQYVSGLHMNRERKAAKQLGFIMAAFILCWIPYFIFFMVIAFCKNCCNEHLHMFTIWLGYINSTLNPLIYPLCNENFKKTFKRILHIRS
T8 sequence (P18089 whole entry): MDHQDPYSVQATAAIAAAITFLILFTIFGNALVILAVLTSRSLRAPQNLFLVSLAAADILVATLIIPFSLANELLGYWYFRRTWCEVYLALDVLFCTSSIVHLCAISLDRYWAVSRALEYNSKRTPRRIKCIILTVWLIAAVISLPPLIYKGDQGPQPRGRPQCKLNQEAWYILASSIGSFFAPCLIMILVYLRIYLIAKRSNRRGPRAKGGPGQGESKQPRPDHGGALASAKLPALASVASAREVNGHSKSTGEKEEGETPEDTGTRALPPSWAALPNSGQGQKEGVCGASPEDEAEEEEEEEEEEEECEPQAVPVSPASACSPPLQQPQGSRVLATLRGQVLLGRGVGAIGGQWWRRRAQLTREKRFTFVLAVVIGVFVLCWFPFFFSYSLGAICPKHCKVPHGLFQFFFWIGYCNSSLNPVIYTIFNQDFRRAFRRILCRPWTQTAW
T4 sequence (P25100 whole entry): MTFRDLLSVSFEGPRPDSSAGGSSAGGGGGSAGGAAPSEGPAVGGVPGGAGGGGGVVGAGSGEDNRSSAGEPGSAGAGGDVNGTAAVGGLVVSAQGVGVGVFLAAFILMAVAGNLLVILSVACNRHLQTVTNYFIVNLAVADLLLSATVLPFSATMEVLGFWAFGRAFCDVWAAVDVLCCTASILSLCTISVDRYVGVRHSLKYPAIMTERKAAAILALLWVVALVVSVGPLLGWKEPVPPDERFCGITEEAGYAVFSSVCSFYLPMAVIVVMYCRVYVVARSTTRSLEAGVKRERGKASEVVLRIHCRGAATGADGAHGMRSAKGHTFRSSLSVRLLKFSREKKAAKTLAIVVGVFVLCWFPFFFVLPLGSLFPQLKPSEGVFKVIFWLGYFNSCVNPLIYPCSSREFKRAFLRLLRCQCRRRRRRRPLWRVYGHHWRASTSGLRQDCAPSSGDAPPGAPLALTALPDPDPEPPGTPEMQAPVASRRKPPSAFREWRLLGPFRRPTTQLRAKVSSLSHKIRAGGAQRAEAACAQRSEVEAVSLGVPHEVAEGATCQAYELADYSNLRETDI
T6 sequence (P28221 whole entry): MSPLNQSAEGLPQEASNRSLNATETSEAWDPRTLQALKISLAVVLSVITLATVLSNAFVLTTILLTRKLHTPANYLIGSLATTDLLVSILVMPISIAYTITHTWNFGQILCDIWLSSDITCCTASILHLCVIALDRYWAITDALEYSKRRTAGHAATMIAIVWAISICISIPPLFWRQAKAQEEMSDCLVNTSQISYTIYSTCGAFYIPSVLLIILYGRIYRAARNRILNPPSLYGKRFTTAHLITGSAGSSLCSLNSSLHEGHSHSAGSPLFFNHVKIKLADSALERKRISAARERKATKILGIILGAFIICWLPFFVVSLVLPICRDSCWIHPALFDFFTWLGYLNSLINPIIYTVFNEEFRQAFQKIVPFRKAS
T5 sequence (P14416 whole entry): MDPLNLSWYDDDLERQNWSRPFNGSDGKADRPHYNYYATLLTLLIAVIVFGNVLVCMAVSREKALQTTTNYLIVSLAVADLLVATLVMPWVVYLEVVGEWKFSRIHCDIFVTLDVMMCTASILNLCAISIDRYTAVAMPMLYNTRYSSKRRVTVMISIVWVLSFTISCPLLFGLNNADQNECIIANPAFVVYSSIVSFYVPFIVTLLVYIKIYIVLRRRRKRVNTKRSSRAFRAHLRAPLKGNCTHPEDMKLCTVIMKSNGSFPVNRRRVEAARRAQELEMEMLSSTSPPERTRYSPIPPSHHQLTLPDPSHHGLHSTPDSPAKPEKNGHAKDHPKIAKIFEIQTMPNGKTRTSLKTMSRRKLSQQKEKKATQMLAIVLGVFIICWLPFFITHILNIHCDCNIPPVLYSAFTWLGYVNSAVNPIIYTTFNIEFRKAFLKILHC
T3 sequence (P08913 whole entry): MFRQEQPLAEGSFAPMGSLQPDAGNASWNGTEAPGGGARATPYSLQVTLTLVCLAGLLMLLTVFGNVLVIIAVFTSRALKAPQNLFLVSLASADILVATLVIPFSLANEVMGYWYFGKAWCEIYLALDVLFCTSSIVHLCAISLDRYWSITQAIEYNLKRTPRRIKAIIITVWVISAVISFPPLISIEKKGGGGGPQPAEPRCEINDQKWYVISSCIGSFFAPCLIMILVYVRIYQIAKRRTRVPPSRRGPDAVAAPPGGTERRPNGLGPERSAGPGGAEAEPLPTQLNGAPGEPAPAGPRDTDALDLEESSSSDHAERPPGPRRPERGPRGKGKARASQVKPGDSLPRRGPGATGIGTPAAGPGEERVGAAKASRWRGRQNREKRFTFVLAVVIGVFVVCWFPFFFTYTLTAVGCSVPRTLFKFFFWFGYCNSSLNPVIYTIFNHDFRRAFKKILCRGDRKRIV

O=C1C(=Nc2cccc(C(F)(F)F)c2)c2ccccc2N1c1ccccc1 [Example 92, 1-PHENYL-3-[[3-(TRIFLUOROMETHYL)PHENYL]IMINO]-1,3-DIHYDRO-2H-INDOL-2-ONE]
Ki [1]: > 50 µM | Ki [2]: 39.9 µM | Ki [3]: 21.9 µM | Ki [4]: 17.2 µM | Ki [5]: 41.4 µM | Ki (human 5HT1D receptor): 32.1 µM | Ki (human GAL1 receptor): > 10000 nM | Ki [6]: > 50 µM
